Laboratory results from patent publication US11911483B2, “Modified self-immolating moieties for use in prodrugs and conjugates and methods of using and making” (BRISTOL-MYERS SQUIBB COMPANY, priority 2018, dated 2024).

Assays:
[1] = Blood serum stability in human serum; format: in vitro ADME; details: 37° C.
Protocol: (§1) The samples were incubated at 37° C. for 0, 1, 2, 4, and 24 hours. After each of the time points, an aliquot of 20 μl was taken from the samples and quenched with 60 μl of 75:25:0.1 MeOH:acetonitrile:formic acid. After quenching, all samples were held at −20° C. for 1 hour and further centrifuged at 14000 rpm for 15 mins. The supernatant was transferred to a fresh vial and stored at −20° C. until analysis. Samples were analyzed using LC-MS/MS on Agilent 6530 Q-TOF mass spectrometer connected to an Agilent 1290 UPLC. 3 μL of samples were injected onto a Waters BEH C18 Column (2.1×50 mm, 1.7 μm) maintained at 60° C. […] The total run time is 9.5 min.

[2] = Blood serum stability in mouse serum; format: in vitro ADME
Protocol: as §1

Cathepsin B = Cathepsin B (Homo sapiens, UniProt P07858); assay: Cathepsin B cleavage of linkers; format: biochemical; details: Cathepsin B buffer pH 5.5, 37° C.
Protocol: The following procedure was used for testing the cathepsin B cleavage of linkers.
7.5 μL of test compound (0.5 mM in DMSO) was transferred to individual tube containing 135 μl of Cathepsin B buffer (25 mM Sodium Acetate, 1 mM EDTA, 1 mM DTT, pH 5.5) and the digestion was started by the addition of 7.5 μl of the diluted Cathepsin B enzyme (Activated, 1.45 μM, 0.1 units). The samples were incubated at 37° C. for 24 h. After 24 h, a 20 μL aliquot was taken and quenched with 80 μL of 75:25:0.1 MeOH:acetonitrile:formic acid. Negative control was also included, without the addition of Cathepsin B. A control compound (structure below) was digested similarly and included as positive control. After quenching, all samples were held at −20° C. for 1 h and further centrifuged at 14,000 rpm for 5 min. The supernatant was transferred to a fresh tube and put in an UPLC autosampler for analysis, per the procedure of the preceding example.
In the above structure, “Tub” denotes a tubulysin analog (Cheng et al., U.S. Pat. No. 8,394,922 B2 (2013). The valine-citrulline (Val-Cit) dipeptide is a known substrate for cathepsin B.

Structure (SMILES): CCCCOc1nc(N)c2nc(O)n(Cc3ccc(CN(CCCC)C(=O)OCc4ccc(NC(=O)[C@H](CCCNC(N)=O)NC(=O)[C@@H](NC(=O)[C@H](CCC(=O)O)NC(=O)CCCCCN5C(=O)C=CC5=O)C(C)C)cc4)cc3)c2n1 [Compound B]
- Stability in Human Serum (% cleaved after 24 hours) [1]: 0 % cleaved
- Stability in Mouse Serum (% cleaved after 24 hours) ([2]; mouse serum, 37° C., 24 hours): 50 % cleaved
- Stability in mouse serum (in words) ([2]; text summary of Table C): unstable in mouse serum
- Cathepsin B Cleavage (% cleaved after 24 hours) (Cathepsin B): 100 % cleaved
